Like-named read-outs stand apart in the source and are kept apart here.
Columns and labels:
Assay type in all cases: biochemical
Asp-2 = Asp-2 (Homo sapiens, UniProt P56817); assay: Asp-2 inhibitory assay (FAM-[SEVNLDAEFK]-TAMRA fluorescence); settings: Assay (I), 1 h at room temperature, pH 4.5
Procedure: (I) Asp-2 Inhibitory Assay
For each compound being assayed, in a 384 well plate, is added:— • a) 1 μl of a DMSO solution of the test compound (IC50 curve uses ten 1 in 2 serial dilutions from 500 μM) • b) 10 μl of substrate (FAM-[SEVNLDAEFK]-TAMRA) solution in buffer. This is prepared by diluting 2 ml of a 2 mM DMSO solution of the substrate into 400 ml of buffer (100 mM Sodium acetate pH=4.5, 1 l Milli-Q water, 0.06% Triton X-100 (0.5 ml/l), pH adjusted to 4.5 using glacial acetic acid). Aminomethyl fluorescein (FAM) and tetramethyl rhodamine (TAMRA) are fluorescent molecules which co-operate to emit fluorescence at 535 nm upon cleavage of the SEVNLDAEFK peptide. • c) 10 μl enzyme solution. This is prepared by diluting 16 ml of a 500 nM enzyme solution into 384 ml of buffer (prepared as above).
(§1) Blank wells (enzyme solution replaced by buffer) are included as controls on each plate. Wells are incubated for 1 h at room temperature and fluorescence read using a Tecan Ultra Fluorimeter/Spectrophotometer (485 nm excitation, 535 nm emission).

Asp-1 = molecular target: T1, Asp-1 (Homo sapiens, UniProt Q9Y5Z0); assay: Asp-1 inhibitory assay (FAM-[SEVNLDAEFK]-TAMRA fluorescence); settings: Assay (II), 2 h at room temperature, pH 4.5
T1 sequence (Q9Y5Z0 63-518): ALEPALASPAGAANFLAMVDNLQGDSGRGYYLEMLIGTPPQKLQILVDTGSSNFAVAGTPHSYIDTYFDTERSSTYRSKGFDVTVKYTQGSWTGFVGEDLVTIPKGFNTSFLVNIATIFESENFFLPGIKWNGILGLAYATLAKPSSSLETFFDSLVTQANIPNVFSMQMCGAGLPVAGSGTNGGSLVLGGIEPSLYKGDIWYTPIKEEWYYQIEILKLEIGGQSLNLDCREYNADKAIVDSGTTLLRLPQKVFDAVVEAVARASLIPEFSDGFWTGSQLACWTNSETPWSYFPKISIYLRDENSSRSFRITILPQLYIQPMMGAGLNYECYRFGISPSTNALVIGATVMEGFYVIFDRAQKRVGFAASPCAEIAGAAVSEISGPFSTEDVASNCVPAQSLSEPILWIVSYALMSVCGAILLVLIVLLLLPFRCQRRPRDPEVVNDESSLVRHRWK
Procedure: (II) Asps-1 Inhibitory Assay
(§2) For each compound being assayed, in a 384 well plate, is added:— • a) 1 μl of a DMSO solution of the test compound (IC50 curve uses ten 1 in 2 serial dilutions from 500 μM). • b) 10 μl of substrate (FAM-[SEVNLDAEFK]-TAMRA) solution in buffer. This is prepared by diluting 2 ml of a 2 mM DMSO solution of the substrate into 400 ml of buffer (100 mM Sodium acetate pH=4.5, 1 l Milli-Q water, 0.06% Triton X-100 (0.5 ml/l), pH adjusted to 4.5 using glacial acetic acid). • c) 10 μl enzyme solution. This is prepared by diluting 4 ml of a 6.3 μM enzyme solution into 496 ml of buffer (100 mM Sodium acetate pH=4.5, 40 mM sodium chloride, 900 ml Milli-Q water, 100 ml glycerol, 0.2% CHAPS (2 g/l), pH adjusted to 4.5 using glacial acetic acid).
Blank wells (enzyme solution replaced by buffer) are included as controls on each plate. Wells are incubated for 2 h at room temperature and fluorescence read using a Tecan Ultra Fluorimeter/Spectrophotometer (485 nm excitation, 535 nm emission).

Cathepsin D = Cathepsin D (Homo sapiens, UniProt P07339); assay: Cathepsin D inhibitory assay (FAM-[SEVNLDAEFK]-TAMRA fluorescence); settings: Assay (III), 1 h at room temperature, pH 4.5; read-out: inhibition (CatD)
Procedure: (III) Cathepsin D Inhibitory Assay
as §2, with “diluting 1.6” for “diluting 4”, “a 200 unit/ml (in 10 mM HCl)” for “a 6.3 μM”, “into 398.4” for “into 496”, “buffer (prepared as above).” for “buffer (100 mM Sodium acetate pH=4.5, 40 mM sodium chloride, 900 ml Milli-Q water, 100 ml glycerol, 0.2% CHAPS (2 g/l), pH adjusted to 4.5 using glacial acetic acid).”
as §1

Asp-2, sequence (P56817 46-501): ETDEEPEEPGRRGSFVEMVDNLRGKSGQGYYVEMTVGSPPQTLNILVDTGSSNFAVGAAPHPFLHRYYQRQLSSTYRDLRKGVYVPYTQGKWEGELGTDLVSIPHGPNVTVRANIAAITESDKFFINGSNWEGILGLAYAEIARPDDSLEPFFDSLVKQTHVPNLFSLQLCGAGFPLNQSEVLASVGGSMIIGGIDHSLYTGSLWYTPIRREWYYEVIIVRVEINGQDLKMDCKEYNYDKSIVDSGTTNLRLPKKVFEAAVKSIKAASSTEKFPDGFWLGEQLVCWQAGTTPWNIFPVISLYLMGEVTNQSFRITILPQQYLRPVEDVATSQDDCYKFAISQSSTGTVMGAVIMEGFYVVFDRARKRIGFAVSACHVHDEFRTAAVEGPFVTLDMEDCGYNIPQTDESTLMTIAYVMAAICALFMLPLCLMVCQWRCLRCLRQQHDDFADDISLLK
Cathepsin D, sequence (P07339 65-412, species assumed): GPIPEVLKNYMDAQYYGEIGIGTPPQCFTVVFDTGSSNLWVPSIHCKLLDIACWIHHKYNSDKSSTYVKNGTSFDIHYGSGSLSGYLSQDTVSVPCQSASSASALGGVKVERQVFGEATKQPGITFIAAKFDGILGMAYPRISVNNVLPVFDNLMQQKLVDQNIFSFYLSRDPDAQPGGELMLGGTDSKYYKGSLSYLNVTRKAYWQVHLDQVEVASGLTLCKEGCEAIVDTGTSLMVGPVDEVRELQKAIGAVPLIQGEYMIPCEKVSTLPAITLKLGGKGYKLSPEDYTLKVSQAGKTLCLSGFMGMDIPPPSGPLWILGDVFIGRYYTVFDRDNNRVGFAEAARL

Structure (SMILES)	IC50 (Asp-2; read-out: Asp-2 IC50) [nM]	IC50 (Asp-1; read-out: Asp-1 IC50) [µM]	IC50 (Asp-2; read-out: inhibition (Asp-2)) [nM]	IC50 (Cathepsin D) [µM]	IC50 (Asp-1; read-out: inhibition (Asp-1)) [µM]
C#CC[C@H](C[C@H](O)[C@H](Cc1ccccc1)NC(=O)c1cccc(S(C)(=O)=O)c1)C(=O)NC1CC2CCC1C2 (stereo partly shown) [Example E2]	330	5.57			
C[C@H](C[C@H](O)[C@H](Cc1ccccc1)NC(=O)c1ccc(S(C)(=O)=O)s1)C(=O)NCCC(C)(C)C [Example E9, 5-Methanesulfonyl-thiophene-2-carboxylic acid [(1S,2S,4R)-1-benzyl-4-(3,3-dimethyl-butylcarbamoyl)-2-hydroxypentyl]-amide]			180	9.6	3.3
C[C@H](C[C@H](O)[C@H](Cc1ccccc1)NC(=O)c1cccc(S(C)(=O)=O)c1)C(=O)NCCC(C)(C)C [Example E1, N-[(1S,2S,4R)-1-Benzyl-4-(3,3-dimethylbutylcarbamoyl)-2-hydroxypentyl]-3-methanesulfonyl-benzamide]	400	7.7			
